“And” between values parts separate entries of the source, which are not always exact repeats. Identical values can stand only once. Inconclusive results and toxic doses are left out. Cut-off read from the data, not from the text of the source: active = T/C of 150% or more; inactive = T/C below 125%.
Test system: L1210 leukemia ip in BDF1 mice, survival T/C
Test: NCI In Vivo Anticancer Drug Screen. Data for tumor model L1210 Leukemia (intraperitoneal) in B6D2F1 (BDF1) mice
Details: endpoint: mean survival time, higher = longer survival
Method in brief: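 Read-out is survival time, reported as the treated-group measurement over the vehicle-control measurement.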

[1] = dose: 100.0 mg/kg/injection, schedule: Q01DX009 (ip), vehicle: Klucel (hydroxypropylcellulose) (HPC)
[2] = dose: 100.0 mg/kg/injection, schedule: Q04DX002 (ip), vehicle: Klucel (hydroxypropylcellulose) (HPC)
[3] = dose: 100.0 mg/kg/injection, schedule: Q04DX003 (ip), vehicle: Klucel (hydroxypropylcellulose) (HPC)
[4] = dose: 200.0 mg/kg/injection, schedule: Q01DX009 (ip), vehicle: Klucel (hydroxypropylcellulose) (HPC)
[5] = dose: 200.0 mg/kg/injection, schedule: Q04DX002 (ip), vehicle: Klucel (hydroxypropylcellulose) (HPC)
[6] = dose: 200.0 mg/kg/injection, schedule: Q04DX003 (ip), vehicle: Klucel (hydroxypropylcellulose) (HPC)
[7] = dose: 400.0 mg/kg/injection, schedule: Q01DX009 (ip), vehicle: Klucel (hydroxypropylcellulose) (HPC)
[8] = dose: 400.0 mg/kg/injection, schedule: Q04DX003 (ip), vehicle: Klucel (hydroxypropylcellulose) (HPC)
[9] = dose: 100.0 mg/kg/injection, schedule: Q04DX002 (ip), vehicle: saline with Tween-80
[10] = dose: 200.0 mg/kg/injection, schedule: Q04DX002 (ip), vehicle: saline with Tween-80
[11] = dose: 100.0 mg/kg/injection, schedule: Q01DX009 (ip), vehicle: saline with Tween-80
[12] = dose: 200.0 mg/kg/injection, schedule: Q01DX009 (ip), vehicle: saline with Tween-80
[13] = dose: 400.0 mg/kg/injection, schedule: Q01DX009 (ip), vehicle: saline with Tween-80
[14] = dose: 25.0 mg/kg/injection, schedule: Q01DX009 (ip), vehicle: saline
[15] = dose: 50.0 mg/kg/injection, schedule: Q01DX001 (ip), vehicle: saline
[16] = dose: 50.0 mg/kg/injection, schedule: Q01DX009 (ip), vehicle: saline
[17] = dose: 100.0 mg/kg/injection, schedule: Q01DX001 (ip), vehicle: saline
[18] = dose: 3.0 mg/kg/injection, schedule: Q04DX003 (ip), vehicle: saline
[19] = dose: 200.0 mg/kg/injection, schedule: Q01DX001 (ip), vehicle: saline
[20] = dose: 400.0 mg/kg/injection, schedule: Q01DX001 (ip), vehicle: saline
[21] = dose: 100.0 mg/kg/injection, schedule: Q04DX002 (ip), vehicle: saline
[22] = dose: 200.0 mg/kg/injection, schedule: Q04DX002 (ip), vehicle: saline
[23] = dose: 400.0 mg/kg/injection, schedule: Q04DX002 (ip), vehicle: saline
[24] = dose: 100.0 mg/kg/injection, schedule: Q04DX003 (ip), vehicle: saline with Tween-80

Measured: T/C

Cc1cc(NC(=O)Nc2cc(F)ccc2F)no1
inactive: dose: 100.0 mg/kg/injection, schedule: Q01DX001 (ip), vehicle: Klucel (hydroxypropylcellulose) (HPC) 117 % of control | [1] 97 % of control | [2] 94 % of control and 90 % of control | [3] 99 % of control | dose: 200.0 mg/kg/injection, schedule: Q01DX001 (ip), vehicle: Klucel (hydroxypropylcellulose) (HPC) 106 % of control | [4] 92 % of control and 100 % of control | [5] 94 % of control and 97 % of control | [6] 103 % of control | dose: 400.0 mg/kg/injection, schedule: Q01DX001 (ip), vehicle: Klucel (hydroxypropylcellulose) (HPC) 101 % of control | [7] 97 % of control and 90 % of control | dose: 400.0 mg/kg/injection, schedule: Q04DX002 (ip), vehicle: Klucel (hydroxypropylcellulose) (HPC) 94 % of control and 101 % of control | [8] 103 % of control

CC(=O)c1ccc(OC(=O)Nc2ccc(C)cc2)cc1
inactive: [1] 109 % of control | [4] 105 % of control | [7] 88 % of control

CCCNC(=O)Oc1ccccc1-c1ccccc1
inactive: [9] 92 % of control | [10] 103 % of control | dose: 400.0 mg/kg/injection, schedule: Q04DX002 (ip), vehicle: saline with Tween-80 110 % of control

CCOC(=N)CCCl
inactive: [11] 94 % of control | [12] 102 % of control | [13] 96 % of control

CCCC(C(=O)O)(c1ccccc1)c1ccccc1
inactive: dose: 100.0 mg/kg/injection, schedule: Q04DX002 (ip), vehicle: gum acacia 96 % of control | dose: 200.0 mg/kg/injection, schedule: Q04DX002 (ip), vehicle: gum acacia 104 % of control

CCOC(=O)CC[P+](c1ccccc1)(c1ccccc1)c1ccccc1
inactive: dose: 75.0 mg/kg/injection, schedule: Q01DX001 (ip), vehicle: saline 103 % of control | dose: 75.0 mg/kg/injection, schedule: Q04DX003 (ip), vehicle: saline 106 % of control | dose: 150.0 mg/kg/injection, schedule: Q01DX001 (ip), vehicle: saline 109 % of control | dose: 150.0 mg/kg/injection, schedule: Q04DX003 (ip), vehicle: saline 105 % of control | dose: 300.0 mg/kg/injection, schedule: Q01DX001 (ip), vehicle: saline 101 % of control | dose: 300.0 mg/kg/injection, schedule: Q04DX003 (ip), vehicle: saline 107 % of control

O=C(NOS(=O)(=O)O)c1ccccc1
inactive: dose: 25.0 mg/kg/injection, schedule: Q01DX001 (ip), vehicle: saline 94 % of control | [14] 110 % of control | dose: 25.0 mg/kg/injection, schedule: Q04DX003 (ip), vehicle: saline 98 % of control | [15] 99 % of control | [16] 97 % of control | dose: 50.0 mg/kg/injection, schedule: Q04DX003 (ip), vehicle: saline 100 % of control | [17] 100 % of control and 104 % of control | dose: 100.0 mg/kg/injection, schedule: Q04DX003 (ip), vehicle: saline 100 % of control

C[n+]1c2cc(N)ccc2cc2ccc(N)cc21
inactive: [18] 108 % of control | dose: 3.5 mg/kg/injection, schedule: Q01DX009 (ip), vehicle: saline 111 % of control | dose: 5.3 mg/kg/injection, schedule: Q01DX009 (ip), vehicle: saline 118 % of control | dose: 6.0 mg/kg/injection, schedule: Q04DX003 (ip), vehicle: saline 105 % of control | dose: 6.25 mg/kg/injection, schedule: Q01DX009 (ip), vehicle: saline 122 % of control | dose: 12.0 mg/kg/injection, schedule: Q04DX003 (ip), vehicle: saline 113 % of control | dose: 12.5 mg/kg/injection, schedule: Q04DX003 (ip), vehicle: saline 98 % of control

C1=Nc2ccccc2/C1=C/c1cccc2ccccc12
inactive: [9] 98 % of control | [10] 101 % of control

CCOC(=O)Nc1cccc(C)c1C
inactive: [1] 100 % of control | [4] 107 % of control | [7] 104 % of control

CCCCCCCNC(=S)NNC(=O)CCCC(=O)NNC(=S)NCCCCCCC
inactive: [15] 98 % of control | [17] 96 % of control | [19] 96 % of control | [20] 90 % of control

Cn1[nH]c(=O)c2ncccc2c1=O
inactive: [2] 97 % of control | [21] 94 % of control | [5] 97 % of control | [22] 94 % of control | [23] 97 % of control

CC(C)(CO)CO
inactive: [14] 97 % of control | dose: 25.0 mg/kg/injection, schedule: Q04DX002 (ip), vehicle: saline 113 % of control | [16] 108 % of control | dose: 50.0 mg/kg/injection, schedule: Q04DX002 (ip), vehicle: saline 102 % of control | dose: 100.0 mg/kg/injection, schedule: Q01DX009 (ip), vehicle: saline 105 % of control | [21] 102 % of control and 103 % of control

CCOC(=O)CCCCN(C(=O)OCc1ccccc1)N(C)C(=O)OCc1ccccc1
inactive: dose: 25.0 mg/kg/injection, schedule: Q04DX003 (ip), vehicle: saline with Tween-80 115 % of control | dose: 50.0 mg/kg/injection, schedule: Q04DX003 (ip), vehicle: saline with Tween-80 95 % of control | [24] 101 % of control | dose: 200.0 mg/kg/injection, schedule: Q04DX003 (ip), vehicle: saline with Tween-80 103 % of control | dose: 400.0 mg/kg/injection, schedule: Q04DX003 (ip), vehicle: saline with Tween-80 97 % of control

[CH3][Sn]([CH3])([CH3])[O][N+](=O)[O-]
inactive: dose: 0.18 mg/kg/injection, schedule: Q01DX009 (ip), vehicle: saline 94 % of control | dose: 0.37 mg/kg/injection, schedule: Q01DX009 (ip), vehicle: saline 100 % of control | dose: 0.75 mg/kg/injection, schedule: Q01DX009 (ip), vehicle: saline 103 % of control | dose: 1.5 mg/kg/injection, schedule: Q04DX003 (ip), vehicle: saline 108 % of control | [18] 103 % of control

CCC(C)C(CN)(CCN(C)CC)c1cccc2ccccc12 (stereo unspecified)
inactive: [24] 90 % of control

CCOC(=O)CCC(NC(=O)CCCCSc1ncnc2nc[nH]c12)C(=O)OCC (stereo unspecified)
inactive: dose: 25.0 mg/kg/injection, schedule: Q01DX009 (ip), vehicle: saline with Tween-80 97 % of control | dose: 25.0 mg/kg/injection, schedule: Q01DX009 (oral), vehicle: saline with Tween-80 90 % of control | dose: 50.0 mg/kg/injection, schedule: Q01DX009 (ip), vehicle: saline with Tween-80 101 % of control | dose: 50.0 mg/kg/injection, schedule: Q01DX009 (oral), vehicle: saline with Tween-80 86 % of control | [11] 106 % of control | dose: 100.0 mg/kg/injection, schedule: Q01DX009 (oral), vehicle: saline with Tween-80 100 % of control | [12] 111 % of control | dose: 200.0 mg/kg/injection, schedule: Q01DX009 (oral), vehicle: saline with Tween-80 88 % of control | [13] 107 % of control | dose: 400.0 mg/kg/injection, schedule: Q01DX009 (oral), vehicle: saline with Tween-80 95 % of control

CC1CCCC(C)N1NC(=O)NCCCl (stereo unspecified)
inactive: [1] 100 % of control | [3] 100 % of control | [4] 102 % of control | [6] 100 % of control | [7] 102 % of control | [8] 97 % of control

CC(C)=NOC(=O)N(C)C
inactive: [17] 93 % of control | [19] 96 % of control | [20] 91 % of control

CCCCCCCCCCCCOC(=N)N1CCOCC1
inactive: dose: 11.1 mg/kg/injection, schedule: Q01DX Z (ip), vehicle: saline 102 % of control | dose: 16.6 mg/kg/injection, schedule: Q01DX Z (ip), vehicle: saline 102 % of control | dose: 25.0 mg/kg/injection, schedule: Q01DX Z (ip), vehicle: saline 98 % of control

CC1CCC(NC2=NCCO2)C(C)C1 (stereo unspecified)
inactive: [24] 91 % of control

Cc1ccnc(-n2c(N)cc(=O)[nH]c2=S)c1
inactive: [21] 102 % of control | [22] 107 % of control | [23] 107 % of control
